# Experimental data as given in US11767313B2, “Compounds as nuclear transport modulators and uses thereof” (XWPHARMA LTD., priority 2018, dated 2023).
# Read-outs that look alike come from different tables or passages of the source.
# Key:
# T98G = assay: CellTiter-Glo cell proliferation assay, T98G; assay type: cell-based; conditions: Table 11, read-out: Absolute IC50 (μM) T98G
# Experimental: (§1) CellTiter-Glo® Luminescent Cell Viability assay (with Promega CellTiter 96® Luminescent CellTiter-Glo® kit) was used to study the proliferation inhibition by test compounds. Compounds were resuspended in DMSO to make a 25 mM stock suspension. Cells of cancer cell lines or normal tissues were seeded in 96-well plates at 1,500 to 5,000 cells/well overnight. Compounds were 2- or 3-fold diluted serially to obtain 10 concentrations. Then, the drugs were added to the cell wells by Bravo (Agilent) and incubated for 72 hours. The cells were lysed by adding CellTiter-Glo® Reagent (per manufacturer's instructions) and subsequently, the luminescence was read using EnVision® (PerkinElmer).
# (§2) The percent of growth was calculated as follows. DMSO-treated cells were employed as vehicle control (High control, HC) and culture medium alone was employed as background (Low control, EC). % growth=100×(Lum sample−Lum EC)/(Lum HC−Lum EC). The ICso was calculated by concentration-response curve fitting using Graphpad Prism.
# (§3) Hematological cancer cell lines tested included OCI-AML3, MV-4-11, KG-1, Kasumi-1, K562, THP-1; solid cancer cell lines tested included U87MG, U251, T98G, LN229, A172, H460, H2009, A549; normal cell lines tested included HCN2 and 3T3-L1. […] However, they were not toxic to in vitro cultured normal cells.
# LN-229 = assay: CellTiter-Glo cell proliferation assay, LN-229; assay type: cell-based; conditions: Table 11, read-out: Absolute IC50 (μM) LN-229
# Experimental: as §1, §2, §3
# U251 = assay: CellTiter-Glo cell proliferation assay, U251; assay type: cell-based; conditions: Table 11, read-out: Absolute IC50 (μM) U251
# Experimental: as §1, §2, §3
# U87MG = assay: CellTiter-Glo cell proliferation assay, U87MG; assay type: cell-based, human; conditions: U87MG, Table 12; for IC50: Homo sapiens, U-87 MG; for Bottom / Hill Slope / Top: curve fit
# Experimental: as §1, §2, §3
# XPO1 [1] = molecular target: T1, XPO1 (Homo sapiens, UniProt O14980); assay: REV-GFP translocation assay in U2OS cells; assay type: cell-based; set-up: endogenous in cells; host or cells: U2OS cells stably expressing REV-GFP (clones from HD Biosciences); conditions: for EC50: 1 h
# T1 sequence (O14980 whole entry): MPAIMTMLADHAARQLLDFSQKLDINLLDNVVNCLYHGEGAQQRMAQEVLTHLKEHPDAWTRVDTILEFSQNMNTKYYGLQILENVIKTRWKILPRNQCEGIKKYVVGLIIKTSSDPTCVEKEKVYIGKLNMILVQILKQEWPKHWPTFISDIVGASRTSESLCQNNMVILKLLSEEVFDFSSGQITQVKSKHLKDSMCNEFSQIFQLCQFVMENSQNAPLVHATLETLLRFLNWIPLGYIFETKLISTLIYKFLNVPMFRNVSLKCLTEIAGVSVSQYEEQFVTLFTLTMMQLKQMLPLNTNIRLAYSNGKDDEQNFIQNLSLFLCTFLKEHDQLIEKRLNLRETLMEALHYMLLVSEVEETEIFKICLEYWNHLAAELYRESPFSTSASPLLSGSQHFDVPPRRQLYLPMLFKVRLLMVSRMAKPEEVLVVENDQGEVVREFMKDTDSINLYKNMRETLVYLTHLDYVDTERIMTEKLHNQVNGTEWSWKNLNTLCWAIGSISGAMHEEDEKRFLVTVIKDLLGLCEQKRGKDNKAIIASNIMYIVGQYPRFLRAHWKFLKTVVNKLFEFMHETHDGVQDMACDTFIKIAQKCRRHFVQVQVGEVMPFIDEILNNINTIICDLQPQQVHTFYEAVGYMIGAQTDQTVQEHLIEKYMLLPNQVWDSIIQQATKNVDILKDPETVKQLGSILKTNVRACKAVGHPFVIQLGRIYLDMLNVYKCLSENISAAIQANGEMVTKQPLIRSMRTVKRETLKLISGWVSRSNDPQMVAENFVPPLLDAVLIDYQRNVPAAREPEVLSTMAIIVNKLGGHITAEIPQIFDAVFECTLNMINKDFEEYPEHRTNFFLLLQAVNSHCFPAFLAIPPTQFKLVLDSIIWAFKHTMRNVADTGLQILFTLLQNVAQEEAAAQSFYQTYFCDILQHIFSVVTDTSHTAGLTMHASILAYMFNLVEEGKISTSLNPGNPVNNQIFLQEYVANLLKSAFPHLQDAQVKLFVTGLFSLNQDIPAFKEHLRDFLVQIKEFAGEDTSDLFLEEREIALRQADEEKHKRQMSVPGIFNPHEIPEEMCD
# Experimental: LTD in China, and cells were cultured with growth medium. […] The highest Leptomycin B (LMB) concentration was set to 50 nM and serially diluted as the positive control, while the highest concentrations of other compounds were set to 10 μM. The cells treated with various drugs or DMSO, were incubated at 37° C. and 5% CO2 for 1 h. Then, cells were fixed with 4% formaldehyde for 15 min at room temperature. The cells were washed and stained with 100 μL Hoechst 33342 working solution for 10 min at room temperature in dark, after which the cell fluorescence was imaged with the High-Content Imaging System, ImageXpress® (Molecular Devices) using the 20× objective. The filters were set for Hoechst (350/461 nm) and GFP/FITC (488/509 nm) (wavelength for excitation and emission maxima). The % effect of REV nuclear translocation was calculated with the following formula: % effect=([…]- signals from testing compounds; ILMB-signals of 50 nM LMB group; ICTRL-signals of vehicle control group.
# XPO1 [2] = molecular target: T1, XPO1; assay: Compound washout assay in REV-GFP cells
# Experimental: In order to evaluate the duration of XPO1 inhibition by test compounds on XPO1 protein after washout, washout assay was performed using REV-GFP cells. The test compounds and positive control were added to the cell well, and the plate was incubated the at 37° C. and 5% CO2 for 1 h. The drug-containing media were removed, the cells were washed, and the fresh media were added. The cells were imagined at the specified time points 0, 4, 24, 48, 72, and 96 hours to evaluate the inhibition of REV nuclear export. […] 4A. […] 4B. […] 4C.
IC50 (U87MG; read-out: Relative IC50) [nM],IC50 (U87MG; read-out: Absolute IC50) [nM],SMILES,Max % Inhibition (U87MG) [%],Bottom (U87MG),Hill Slope (U87MG),Top (U87MG),other results
,,"N.N.[Cl][Pt][Cl] [Cisplatin, reference compound]",,,,,IC50 (T98G): 12.3 µM; IC50 (LN-229): 13 µM; IC50 (U251): 6 µM
100,,"CCCC(=O)NNC(=O)/C=C\n1cnc(-c2cc(C(F)(F)F)cc(S(F)(F)(F)(F)F)c2)n1 [Compound IX, (Z)—N′-(3-(3-(3-(Pentafluorosulfaneyl)-5-(trifluoromethyl)phenyl)-1H-1,2,4-triazol-1-yl)acryloyl)butyrohydrazide]",48.3,−4.6,1.6,43.6,
,,"O=C(/C=C\n1cnc(-c2cc(C(F)(F)F)cc(S(F)(F)(F)(F)F)c2)n1)NNc1nccs1 [Compound VI, (Z)-3-(3-(3-(Pentafluorosulfaneyl)-5-(trifluoromethyl)phenyl)-1H-1,2,4-triazol-1-yl)-N′-(thiazol-2-yl)acrylohydrazide]",,,,,"IC50 (T98G; Homo sapiens, T98G): 2.6 µM; IC50 (LN-229; Homo sapiens, LN-229): 1.7 µM; IC50 (U251; Homo sapiens, U-251): 3.8 µM; EC50 (XPO1 [1]; REV-EGFP U2OS cells, Table 2, read-out: Rev-GFP/EC50): 25.2 nM; IC50 (XPO1 [1]; Table 10, first (or only) value of the cell): 25.2 nM"
100,,"O=C(/C=C\n1cnc(-c2cc(C(F)(F)F)cc(S(F)(F)(F)(F)F)c2)n1)NNC(=O)C1CC1 [Compound VII, (Z)—N′-(3-(3-(3-(Pentafluorosulfaneyl)-5-(trifluoromethyl)phenyl)-1H-1,2,4-triazol-1-yl)acryloyl)cyclopropanecarbohydrazide]",49.0,−6.4,1.2,45.9,
100,,"CC(C)C(=O)NNC(=O)/C=C\n1cnc(-c2cc(C(F)(F)F)cc(S(F)(F)(F)(F)F)c2)n1 [Compound VIII, (Z)—N′-Isobutyryl-3-(3-(3-(pentafluorosulfaneyl)-5-(trifluoromethyl)phenyl)-1H-1,2,4-triazol-1-yl)acrylohydrazide]",44.0,−10.6,1.8,38.8,
200,9400,"O=C(/C=C\n1cnc(-c2cc(C(F)(F)F)cc(S(F)(F)(F)(F)F)c2)n1)NNC(=O)C1CCC1 [Compound X, (Z)—N′-(3-(3-(3-(Pentafluorosulfaneyl)-5-(trifluoromethyl)phenyl)-1H-1,2,4-triazol-1-yl)acryloyl)cyclobutanecarbohydrazide]",58.3,−15.9,0.5,59.4,
200,,"CC1(C(=O)NNC(=O)/C=C\n2cnc(-c3cc(C(F)(F)F)cc(S(F)(F)(F)(F)F)c3)n2)CC1 [Compound XI, (Z)-1-Methyl-N′-(3-(3-(3-(pentafluorosulfaneyl)-5-(trifluoromethyl)phenyl)-1H-1,2,4-triazol-1-yl)acryloyl)cyclopropane-1-carbohydrazide]",48.5,−7.6,1.8,44.6,
600,18500,"CC(CO)(CCl)C(=O)NNC(=O)/C=C\n1cnc(-c2cc(C(F)(F)F)cc(S(F)(F)(F)(F)F)c2)n1 (centres unmarked) [Compound XII, (Z)—N′-(3-Chloro-2-(hydroxymethyl)-2-methylpropanoyl)-3-(3-(3-(pentafluorosulfaneyl)-5-(trifluoromethyl)phenyl)-1H-1,2,4-triazol-1-yl)acrylohydrazide]",53.9,−5.5,1.2,50.9,
300,10000,"CC(C)(C)C(=O)NNC(=O)/C=C\n1cnc(-c2cc(C(F)(F)F)cc(C(F)(F)F)c2)n1 [KPT-350, (Z)-3-(3-(3,5-bis(trifluoromethyl)phenyl)-1H-1,2,4-triazol-1-yl)-N′-pivaloylacrylohydrazide, reference compound]",49.4,−13.2,0.8,53.0,
,,"CCC(=C/[C@H](C)C/C=C/C(C)=C/[C@@H](C)C(=O)[C@@H](C)[C@H](O)[C@@H](C)C/C(C)=C/C(=O)O)/C=C/[C@@H]1OC(=O)C=C[C@@H]1C [LMB, Leptomycin B, reference compound]",,,,,"sustained retention of REV protein in the nucleus post washout (XPO1 [2]; 50 nM, 1 h treatment then washout): up to 24 hours; effect on retention of REV protein in the nucleus (XPO1 [2]; 50 nM, 72 hours post washout): 30%; toxicity / cell number compared to the control (XPO1 [2]; washout assay): showed toxicity; EC50 (XPO1 [1]; Rev-GFP-U2OS cells, FIG. 1B, read-out: EC50 in the Rev redistribution): 0.11 nM"
